Results taken from patent US20240270739A1, “Heteroaryl Fluoroalkenes As DGK Inhibitors” (Incyte Corporation, priority 2023, published 2024).

Legend:
DGKα = molecular target: T1, DGKα (Homo sapiens, UniProt P23743); test: In vitro DGKα inhibition assay (ADP-Glo); type: biochemical; conditions: His-tagged human recombinant enzyme, 0.1 nM DGKα, 50 μM ATP, 20 μM DLG, 90 minute incubation
T1 construct: His; purchased Signal Chem D21-10BH
Experimental: (§1) The DGKα and DGKζ biochemical reactions were performed using His-tagged human recombinant enzymes (Signal Chem, DGKα, #D21-10BH; DGKζ, #D30-10H)) and DLG (Dilauroyl-sn-glycerol) lipid substrate (Signal Chem, #D430-59). ADP-Glo assay was performed using ADP-Glo™ kinase Assay kit (Promega, #V9104). The reactions were carried out in assay buffer containing 40 mM Tris, pH 7.5, 0.1% CHAPS, 0.1% Prionex, 40 mM NaCl, 5 mM MgCl2, 1 mM CaCl2, and 1 mM DTT. DGKα reactions contained 0.1 nM DGKα, 50 μM ATP, and 20 μM DLG. And DGKζ reactions contained 0.4 nM DGKζ, 30 μM ATP, and 20 μM DLG.
(§2) For compound inhibition studies, 40 nL test compound in DMSO was added to wells of white polystyrene plates in 384-well (Greiner, #784075) or 1536-well format (Greiner, #782075). Compounds were added with top concentration of 2 mM with 11 point, 3-fold dilution series. Enzyme solution (contains 2×DGK enzyme concentration in 1× assay buffer) was added to the plate in 2 μL/well volume, followed by 2 μL/well of substrate solution (contains 2× concentration of ATP and DLG substrate in 1× assay buffer). Plates were then centrifuged for 1 min at 1200 RPM and sealed or lidded. For 4 μL reaction volume, test compounds were therefore diluted 100× to final top concentration of […]. After 90 minute incubation, reactions were quenched by addition of 2 μL/well Promega ADP-Glo Reagent, followed by centrifugation and lidding. After 60 min incubation, 2 μL/well Promega Kinase Detection Reagent was added, plates centrifuged, and incubated for 30 min. Plates were then read using Luminescence method on BMG PHERAstar FSX plate reader. Percent inhibition was calculated and IC50s were determined using 4-parameter fit in Genedata Screener. Labcyte Echo acoustic dispenser was used for compound addition, and Formulatrix Tempest liquid handler was used for all reagent dispenses. The compounds of the disclosure were tested in one or more of the assays described above, and the resulting data are shown in Table A.

DGKζ = molecular target: T2, DGKζ (Homo sapiens, UniProt Q13574); test: In vitro DGKζ inhibition assay (ADP-Glo); type: biochemical; conditions: His-tagged human recombinant enzyme, 0.4 nM DGKζ, 30 μM ATP, 20 μM DLG, 90 minute incubation
T2 construct: His; purchased Signal Chem D30-10H
T2 sequence (Q13574 whole entry): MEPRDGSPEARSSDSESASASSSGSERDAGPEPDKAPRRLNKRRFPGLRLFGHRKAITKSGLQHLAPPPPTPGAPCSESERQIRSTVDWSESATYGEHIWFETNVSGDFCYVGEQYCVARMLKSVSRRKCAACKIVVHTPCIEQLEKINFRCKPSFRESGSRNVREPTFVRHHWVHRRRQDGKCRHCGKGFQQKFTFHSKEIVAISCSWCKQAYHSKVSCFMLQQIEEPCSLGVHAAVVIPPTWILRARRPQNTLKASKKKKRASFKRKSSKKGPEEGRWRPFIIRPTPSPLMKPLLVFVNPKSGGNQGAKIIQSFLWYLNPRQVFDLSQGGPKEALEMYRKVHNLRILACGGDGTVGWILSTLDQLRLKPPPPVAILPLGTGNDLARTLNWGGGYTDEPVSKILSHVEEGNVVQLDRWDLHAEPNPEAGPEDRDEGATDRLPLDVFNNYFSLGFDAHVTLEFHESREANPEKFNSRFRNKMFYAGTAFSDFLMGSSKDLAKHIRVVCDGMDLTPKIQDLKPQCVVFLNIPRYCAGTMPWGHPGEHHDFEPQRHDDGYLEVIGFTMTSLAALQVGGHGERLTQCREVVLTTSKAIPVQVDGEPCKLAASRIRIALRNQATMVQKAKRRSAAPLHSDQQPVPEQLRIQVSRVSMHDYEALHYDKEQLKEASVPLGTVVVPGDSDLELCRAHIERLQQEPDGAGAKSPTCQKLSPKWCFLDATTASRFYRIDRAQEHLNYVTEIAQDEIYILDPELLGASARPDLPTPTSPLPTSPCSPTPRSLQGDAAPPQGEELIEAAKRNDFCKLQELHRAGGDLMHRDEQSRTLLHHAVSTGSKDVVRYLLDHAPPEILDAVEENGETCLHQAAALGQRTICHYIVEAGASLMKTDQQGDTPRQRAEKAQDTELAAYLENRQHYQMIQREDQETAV
Experimental: as §1, §2

T1 sequence (P23743 whole entry): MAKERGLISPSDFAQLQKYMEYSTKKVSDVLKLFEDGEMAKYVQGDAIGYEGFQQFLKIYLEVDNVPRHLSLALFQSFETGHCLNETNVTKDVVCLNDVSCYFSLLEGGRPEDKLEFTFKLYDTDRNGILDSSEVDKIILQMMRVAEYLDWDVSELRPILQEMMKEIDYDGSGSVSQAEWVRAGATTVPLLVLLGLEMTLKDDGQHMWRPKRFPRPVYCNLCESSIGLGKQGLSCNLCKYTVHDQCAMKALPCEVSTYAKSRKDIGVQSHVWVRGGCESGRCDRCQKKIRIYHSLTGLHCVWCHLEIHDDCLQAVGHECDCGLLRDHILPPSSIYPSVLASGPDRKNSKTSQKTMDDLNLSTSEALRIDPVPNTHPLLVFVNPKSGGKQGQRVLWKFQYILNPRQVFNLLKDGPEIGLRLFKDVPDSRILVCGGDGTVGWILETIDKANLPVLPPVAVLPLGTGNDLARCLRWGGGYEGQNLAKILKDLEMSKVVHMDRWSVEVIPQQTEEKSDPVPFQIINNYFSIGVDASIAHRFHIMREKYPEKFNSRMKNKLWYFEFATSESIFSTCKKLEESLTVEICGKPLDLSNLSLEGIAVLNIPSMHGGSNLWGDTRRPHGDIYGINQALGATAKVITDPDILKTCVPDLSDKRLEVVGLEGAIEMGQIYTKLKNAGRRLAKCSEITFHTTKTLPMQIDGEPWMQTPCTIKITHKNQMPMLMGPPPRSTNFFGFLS

SMILES	IC50 (DGKα) [nM]	IC50 (DGKζ) [nM]
CN(c1c(/C=C(\F)c2csc(-c3ccnnc3)n2)ccc(Oc2ccccc2F)c1C(F)(F)F)[C@H]1CCNC[C@H]1F [Example 4, (3R,4S)-3-Fluoro-N-(6-((Z)-2-fluoro-2-(2-(pyridazin-4-yl)thiazol-4-yl)vinyl)-3-(2-fluorophenoxy)-2-(trifluoromethyl)phenyl)-N-methylpiperidin-4-amine]	20 to 200	20 to 200
CCN1CCC2(CC1)CN(c1c(/C=C(\F)c3csc(-c4ccnnc4)n3)ccc(Oc3ccccc3)c1C(F)(F)F)CCO2 [Example 6, (Z)-9-Ethyl-4-(6-(2-fluoro-2-(2-(pyridazin-4-yl)thiazol-4-yl)vinyl)-3-phenoxy-2-(trifluoromethyl)phenyl)-1-oxa-4,9-diazaspiro[5.5]undecane]	20 to 200	≤ 20
F/C(=C\c1ccc(OC2CCC2)c(C(F)(F)F)c1N1CCOC2(CCNCC2)C1)c1csc(-c2ccnnc2)n1 [Example 7, (Z)-4-(3-Cyclobutoxy-6-(2-fluoro-2-(2-(pyridazin-4-yl)thiazol-4-yl)vinyl)-2-(trifluoromethyl)phenyl)-1-oxa-4,9-diazaspiro[5.5]undecane]	≤ 20	20 to 200
F/C(=C\c1ccc(Oc2ccccc2)c(C(F)(F)F)c1N1CCCC2(CCNCC2)C1)c1csc(N2CCC(F)(F)C2)n1 [Example 9, (Z)-2-(3,3-Difluoropyrrolidin-1-yl)-4-(1-fluoro-2-(4-phenoxy-2-(2,9-diazaspiro[5.5]undecan-2-yl)-3-(trifluoromethyl)phenyl)vinyl)thiazole]	20 to 200	200 to 2000
F/C(=C\c1ccc(Oc2cccc(F)c2F)c(C(F)(F)F)c1N1CCCC2(CCN(CC3CC3)CC2)C1)c1ccn(-c2ccnnc2)n1 [Example 10, (Z)-9-(Cyclopropylmethyl)-2-(3-(2,3-difluorophenoxy)-6-(2-fluoro-2-(1-(pyridazin-4-yl)-1H-pyrazol-3-yl)vinyl)-2-(trifluoromethyl)phenyl)-2,9-diazaspiro[5.5]undecane]	20 to 200	≤ 20
F/C(=C\c1ccc(OC2CCCCC2)c(C(F)(F)F)c1N1CCCC2(CCN(CC3CC3)CC2)C1)c1ccn(-c2ccnnc2)n1 [Example 15, (Z)-2-(3-(Cyclohexyloxy)-6-(2-fluoro-2-(1-(pyridazin-4-yl)-1H-pyrazol-3-yl)vinyl)-2-(trifluoromethyl)phenyl)-9-(cyclopropylmethyl)-2,9-diazaspiro[5.5]undecane]	20 to 200	≤ 20
F/C(=C\c1ccc(Oc2ccccc2)c(C(F)(F)F)c1N1CCCC2(CCN(CC3CC3)CC2)C1)c1csc(-c2ccnnc2)n1 [Example 18, (Z)-4-(2-(2-(9-(Cyclopropylmethyl)-2,9-diazaspiro[5.5]undecan-2-yl)-4-phenoxy-3-(trifluoromethyl)phenyl)-1-fluorovinyl)-2-(pyridazin-4-yl)thiazole]	20 to 200	≤ 20
CCN1CC2(CCCN(c3c(/C=C(\F)c4ccn(-c5ccnnc5)n4)ccc(Oc4cccc(F)c4F)c3C(F)(F)F)C2)C1 [Example 19, (Z)-6-(3-(2,3-Difluorophenoxy)-6-(2-fluoro-2-(1-(pyridazin-4-yl)-1H-pyrazol-3-yl)vinyl)-2-(trifluoromethyl)phenyl)-2-ethyl-2,6-diazaspiro[3.5]nonane]	≤ 20	≤ 20
F/C(=C\c1ccc(Oc2cccc(F)c2F)c(C(F)(F)F)c1N1CCCC2(CN(CC3CC3)C2)C1)c1ccn(-c2ccnnc2)n1 [Example 20, (Z)-2-(Cyclopropylmethyl)-6-(3-(2,3-difluorophenoxy)-6-(2-fluoro-2-(1-(pyridazin-4-yl)-1H-pyrazol-3-yl)vinyl)-2-(trifluoromethyl)phenyl)-2,6-diazaspiro[3.5]nonane]	≤ 20	20 to 200
F/C(=C\c1ccc(Oc2ccccc2)c(C(F)(F)F)c1N1CCCC2(CCN(CC3CC3)CC2)C1)c1ccn(-c2ccnnc2)n1 [Example 21, (Z)-9-(Cyclopropylmethyl)-2-(6-(2-fluoro-2-(1-(pyridazin-4-yl)-1H-pyrazol-3-yl)vinyl)-3-phenoxy-2-(trifluoromethyl)phenyl)-2,9-diazaspiro[5.5]undecane]	20 to 200	≤ 20

More lines, now with the values ahead:

IC50 (DGKα) [nM]	IC50 (DGKζ) [nM]	SMILES
≤ 20	≤ 20	NC[C@@H]1CCCN(c2c(/C=C(\F)c3csc(-c4ccnnc4)n3)ccc(Oc3ccccc3F)c2C(F)(F)F)C1 [Example 1, (S,Z)-(1-(6-(2-Fluoro-2-(2-(pyridazin-4-yl)thiazol-4-yl)vinyl)-3-(2-fluorophenoxy)-2-(trifluoromethyl)phenyl)piperidin-3-yl)methanamine]
≤ 20	≤ 20	NC[C@@H]1CCCN(c2c(/C=C(\F)c3ccn(-c4ccnnc4)n3)ccc(Oc3ccccc3F)c2C(F)(F)F)C1 [Example 2, (S,Z)-(1-(6-(2-Fluoro-2-(1-(pyridazin-4-yl)-1H-pyrazol-3-yl)vinyl)-3-(2-fluorophenoxy)-2-(trifluoromethyl)phenyl)piperidin-3-yl)methanamine]
≤ 20	≤ 20	COc1cc(F)ccc1Oc1ccc(/C=C(\F)c2csc(-c3ccnnc3)n2)c(N2CCC[C@@H](CN)C2)c1Cl [Example 3, (S,Z)-(1-(2-Chloro-6-(2-fluoro-2-(2-(pyridazin-4-yl)thiazol-4-yl)vinyl)-3-(4-fluoro-2-methoxyphenoxy)phenyl)piperidin-3-yl)methanamine]
≤ 20	≤ 20	F/C(=C\c1ccc(Oc2ccccc2)c(C(F)(F)F)c1N1CCOC2(CCNCC2)C1)c1csc(-c2ccnnc2)n1 [Example 5, (Z)-4-(6-(2-Fluoro-2-(2-(pyridazin-4-yl)thiazol-4-yl)vinyl)-3-phenoxy-2-(trifluoromethyl)phenyl)-1-oxa-4,9-diazaspiro[5.5]undecane]
≤ 20	20 to 200	F/C(=C\c1ccc(Oc2cccc(F)c2F)c(C(F)(F)F)c1N1CCCC2(CCNCC2)C1)c1csc(-c2cnsc2)n1 [Example 8, (Z)-4-(4-(2-(4-(2,3-Difluorophenoxy)-2-(2,9-diazaspiro[5.5]undecan-2-yl)-3-(trifluoromethyl)phenyl)-1-fluorovinyl)thiazol-2-yl)isothiazole]
≤ 20	≤ 20	F/C(=C\c1ccc(Oc2cccc(F)c2F)c(C(F)(F)F)c1N1CCCC2(CCN(CC3CC3)CC2)C1)c1csc(-c2ccnnc2)n1 [Example 11, (Z)-4-(2-(2-(9-(Cyclopropylmethyl)-2,9-diazaspiro[5.5]undecan-2-yl)-4-(2,3-difluorophenoxy)-3-(trifluoromethyl)phenyl)-1-fluorovinyl)-2-(pyridazin-4-yl)thiazole]
≤ 20	≤ 20	CC(C)(O)CN1CCC2(CCCN(c3c(/C=C(\F)c4csc(-c5ccnnc5)n4)ccc(Oc4ccccn4)c3C(F)(F)F)C2)CC1 [Example 12, (Z)-1-(2-(6-(2-Fluoro-2-(2-(pyridazin-4-yl)thiazol-4-yl)vinyl)-3-(pyridin-2-yloxy)-2-(trifluoromethyl)phenyl)-2,9-diazaspiro[5.5]undecan-9-yl)-2-methylpropan-2-ol]
≤ 20	≤ 20	OCCN1CCC2(CCCN(c3c(/C=C(\F)c4csc(-c5ccnnc5)n4)ccc(Oc4ccccn4)c3C(F)(F)F)C2)CC1 [Example 13, (Z)-2-(2-(6-(2-Fluoro-2-(2-(pyridazin-4-yl)thiazol-4-yl)vinyl)-3-(pyridin-2-yloxy)-2-(trifluoromethyl)phenyl)-2,9-diazaspiro[5.5]undecan-9-yl)ethan-1-ol]
≤ 20	≤ 20	F/C(=C\c1ccc(Oc2ccccn2)c(C(F)(F)F)c1N1CCCC2(CCN(CC3CC3)CC2)C1)c1csc(-c2ccnnc2)n1 [Example 14, (Z)-4-(2-(2-(9-(Cyclopropylmethyl)-2,9-diazaspiro[5.5]undecan-2-yl)-4-(pyridin-2-yloxy)-3-(trifluoromethyl)phenyl)-1-fluorovinyl)-2-(pyridazin-4-yl)thiazole]
≤ 20	≤ 20	F/C(=C\c1ccc(Oc2ccccn2)c(C(F)(F)F)c1N1CCCC2(CCN(CC3CC3)CC2)C1)c1ccn(-c2ccnnc2)n1 [Example 16, (Z)-9-(Cyclopropylmethyl)-2-(6-(2-fluoro-2-(1-(pyridazin-4-yl)-1H-pyrazol-3-yl)vinyl)-3-(pyridin-2-yloxy)-2-(trifluoromethyl)phenyl)-2,9-diazaspiro[5.5]undecane]
≤ 20	≤ 20	CCN1CCC2(CCCN(c3c(/C=C(\F)c4csc(-c5ccnnc5)n4)ccc(Oc4ccccc4)c3C(F)(F)F)C2)CC1 [Example 17, (Z)-4-(2-(2-(9-Ethyl-2,9-diazaspiro[5.5]undecan-2-yl)-4-phenoxy-3-(trifluoromethyl)phenyl)-1-fluorovinyl)-2-(pyridazin-4-yl)thiazole]
